Assay results reported in patent US20180200331A1, “BST-2 AS A THERAPEUTIC TARGET AND DIAGNOSTIC MARKER FOR BREAST CANCER GROWTH AND METASTASIS” (University of Iowa Research Foundation, priority 2015, published 2018).

What was measured:
BST-2 = assay: shRNA knockdown of BST-2 in E0771 and 4T1 cells; format: cell-based, mouse; details: E0771 and 4T1 cells stably transduced
Excerpt: E0771 and 4T1 cells were stably transduced with a construct expressing LV-CMV-firefly luciferase or an empty vector construct using lipofectamine following the manufacturer's instructions (Life Technologies, Carlsbad, Calif., USA). Stable transfectants were then transduced with lentiviral particles carrying BST-2-targeting sh137: CCGGC […] (SEQ ID NO:3); sh413: […] TTCTCAAGCTTTTTG (SEQ ID NO:4); or a non-targeting shControl: […] (SEQ ID NO:5) using a previously described protocol. Stable cells were generated by selection with the appropriate drug. The short hairpin RNA (shRNA) constructs were purchased from Sigma-Aldrich (St Louis, Mo., USA) (SHCLND-NM_198095) and lentiviral particles were generated at the Gene Transfer Vector Core at the University of Iowa.
Cell monolayers were washed with PBS and treated with Versene (Life Technologies). […] Stained cells were quantified using a FACSCalibur flow cytometer (BD Biosciences, San Jose, Calif., USA). […] Fluorescence-activated cell sorting (FACS) data were analyzed by Flowjo software (TreeStar, Ashland, Oreg., USA). […]
Western blots were performed as previously described. […] Band detection and quantification were carried out with the Odyssey Infrared Imaging System (LI-COR Biosciences, Lincoln, Nebr., USA).

4T1 cells [1] = assay: Orthotopic implantation of 4T1 cells in BALB/c mice; format: in vivo
Description: Five-week-old C57BL/6NCr and BALB/cAnNCr female mice were used. Mice were sacrificed when they became moribund. Tumor volume (TV) was calculated as: TV=0.5(length*width2). Tumor latency was calculated as the number of tumor-free injected mice/number of injected mice×100. To assess morbidity, the following clinical score ranking was used: (0) no abnormal clinical signs, (1) ruffled fur but lively, (2) ruffled fur, activity level slowing, sick, (3) ruffled fur, eyes squeezed shut, hunched, hardly moving, very sick, (4) moribund and (5) dead. Experiments involving mice were approved by the University of Iowa Animal Care and Use Committee (IACUC).
Prior to imaging, mice were anesthetized, weighed and injected intraperitoneally with D-luciferin. Mice were imaged using the Xenogen IVIS three dimensional optical imaging system (Caliper Life Sciences, Hopkinton, Mass., USA). Luciferase was quantified with Living Image Software (Caliper Life Sciences).

4T1 cells [2] = assay: Collagen and fibronectin adhesion assay; format: cell-based, mouse; details: pre-coated plates, 4 hours
Description: Ninety-six-well plates were coated with 50 μg/ml of collagen or fibronectin. Plates were incubated at 37° C. for 2 hours. Nonspecific sites were blocked with 40 μl of 2 mg/ml bovine serum albumin (BSA) in PBS. Wells were washed once with PBS. Cancer cells were labeled with PKH67 Green fluorescent cell linker, following the manufacturer's instructions (Sigma-Aldrich). Labelled cells were added to pre-coated wells (20,000 cells/well) and allowed to adhere for 4 hours. Non-adhered cells were washed off with PBS and plates were read at 485 nm/535 nm (excitation/emission) wavelengths using a Tecan Infinite M200 Pro plate reader (Tecan, Maennedorf, Switzerland). Values are represented as relative fluorescence unit.

mammary cancer cells [3] = assay: Transformation assay (soft agar colony formation); format: cell-based, mouse; details: compared to shControl
Description: Agar was mixed in Roswell Park Memorial Institute medium (RPMI) with 20% FBS. A total of 500 μl of 0.5% agar was added to 24-well plate and allowed to solidify. Cells were plated at 1,250 cells/well in 500 μl of 0.35% agarose. Some 250 μl of the appropriate growth medium was added on top of the agarose layer. Growth medium was replaced twice a week. Colonies were stained with crystal violet and imaged. Colonies from five different fields were counted and averaged.

mammary cancer cells [4] = assay: Scratch assay; format: cell-based, mouse; details: 6 h and 24 h
Description: Confluent monolayers of cancer cells plated in 12-well plates were scratched using a pipette tip. Fresh medium was added to the wells. Cells were allowed to migrate for 0, 6 or 24 hours before fixation (4% paraformaldehyde (PFA) for 45 minutes). Fixed cells were washed (1×PBS) and imaged with a Nikon Eclipse Ti microscope adjusted with a Nikon digital sight camera (Nikon, Tokyo, Japan). Images were processed and migrated cells counted using Image J software.

4T1 cells [5] = assay: MTT assay, 4T1; format: cell-based, mouse
Description: A total of 5,000 cells stably expressing sh137, sh413, or shControl were plated in 96-well plates. Cells were then incubated with 5 mg/ml MTT reagent for 3.5 hours followed by addition of MTT solvent (0.1% NP-40 and 4 mM HCl in isopropanol) and rocking for 15 minutes. Absorbance at 590 nm was read using a Tecan Infinite M200 Pro plate reader.

In the case of “sh413: BST-2-targeting shRNA (SEQ ID NO:4), delivered by lentiviral particles (CCGGGCTTGAGAATGAAGTCACGAACTCGAGTTCGTGACTTCATTCTCAAGCTTTTTG)”, the BST-2 expression (BST-2) is reported as “more efficiently suppressed BST-2”, the “median overall survival (OS)” value (4T1 cells [1]; Kaplan-Meier) is reported as “undefined” and the “survival area under the curve (AUC)” value (4T1 cells [1]; Kaplan-Meier) is reported as 3,900. The “number of tumors in intestine and mesentery” value (4T1 cells [1]; average of all mice) was “six”, the mammary tumor latency (4T1 cells [1]; compared to shControl cells) was “increased mammary tumor latency” and the “tumor volume over time” value (4T1 cells [1]; compared to shControl tumors) was “significantly lower”. The “mice survived to end of experiment” value (4T1 cells [1]; day 45) was 14 out of 15, the “incidence of metastases to the liver” value (4T1 cells [1]; mouse, in vivo) was 46% and the “incidence of metastases to the lung” value (4T1 cells [1]; mouse, in vivo) was 40%. The “mice spared of ascites and splenomegaly” value (4T1 cells [1]; mouse, in vivo) was 14 out of 15, the average tumor mass (4T1 cells [1]; n=15, at necropsy) was 0.37 g and the adhesion to collagen (4T1 cells [2]) was “reduced adhesive capability”. For the same substance, the adhesion to fibronectin (4T1 cells [2]) was “reduced adhesive capability”, the “colony numbers in soft agar” value (mammary cancer cells [3]) was “reduced colony numbers” and the “migration into scratch wound” value (mammary cancer cells [4]) was “lost the ability to migrate”. For the same substance, the “cell viability (MTT)” value (4T1 cells [5]) was “increased cell viability”.
